# Measurements from ChEMBL document CHEMBL1938248, “Symmetric dimers of ent-kaurane diterpenoids with cytotoxic activity from Croton tonkinensis” (Bioorg Med Chem Lett, 2012).
# How the values were obtained:
# Assay type in all cases: functional, cell-based
# [1] = Cytotoxicity against human MCF7/ADR cells by WST-1 assay; details: NCI/ADR-RES
# [2] = test system: MCF7; assay: Cytotoxicity against human MCF7 cells by WST-1 assay
# [3] = test system: MCF7; assay: Cytotoxicity against human tamoxifen-resistant MCF7 cells by WST-1 assay
# [4] = test system: MDA-MB-231; assay: Cytotoxicity against human MDA-MB-231 cells by WST-1 assay
SMILES,IC50 [1] [µM],IC50 [2] [µM],IC50 [3] [µM],IC50 [4] [µM]
COc1cccc2c1C(=O)c1c(O)c3c(c(O)c1C2=O)C[C@@](O)(C(=O)CO)C[C@@H]3O[C@H]1C[C@H](N)[C@H](O)[C@H](C)O1 [DOXORUBICIN],83.2,–,–,–
C[C@]1(CO)CCC[C@]2(C)[C@@H]1C[C@@H](O)[C@@]13C[C@H](CC[C@@H]21)[C@@](O)(CC[C@@]1(O)C(=O)[C@]24C[C@@H]1CC[C@H]2[C@]1(C)CCC[C@](C)(CO)[C@H]1C[C@H]4O)C3=O [CROTONKINENSIN C],> 30,> 30,> 30,> 30
CC[C@@]1(O)C(=O)OCc2c1cc1n(c2=O)Cc2cc3ccccc3nc2-1 [CAMPTOTHECIN],0.8,2.6,1.8,2.7
CC(=O)OC[C@@]1(C)CCC[C@]2(C)[C@@H]1C[C@@H](O)[C@@]13C[C@H](CC[C@@H]21)[C@@](O)(CC[C@@]1(O)C(=O)[C@]24C[C@@H]1CC[C@H]2[C@]1(C)CCC[C@](C)(COC(C)=O)[C@H]1C[C@H]4O)C3=O [CROTONKINENSIN D],18.9,9.4,2.6,22
